In US20250332173A1, “COMPOUNDS AND METHODS FOR MODULATING NUCLEIC ACID SPLICING” (REMIX THERAPEUTICS INC., priority 2021, published 2025):

Columns and labels:
[1] = test system: SMN2 mRNA; experiment: RT-qPCR splicing assay, SMN2 canonical junction (CJ) mRNA; format: cell-based, human; details: Homo sapiens; Table 5 panel; canonical junction qPCR; compound concentration having 50% response in CJ decrease; read-out: SMN2 IC50 (decrease in CJ mRNA levels)
Summary of the method: (§1)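 A673 or K562 cells were treated for 24 h at 37 °C with compound in 11-point 3-fold dilution (top 10 uM final, DMSO ≤0.25%). Lysates then went to one-step RT-qPCR measuring canonical-junction mRNA, normalized to GAPDH, GUSB or PPIA.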

[2] = test system: Target C; experiment: HiBiT protein abundance assay, Target C (Promega Nano-Glo HiBiT Lytic Detection System, knock-in K562 cell line); format: cell-based, human; details: Homo sapiens, K562, 24 h, HiBiT K562 cell line, 24 hours, top dose 10 μM; read-out: Effect on protein abundance, Target C (IC50 category)
Summary of the method: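 Knock-in K562 cells carrying HiBiT-tagged Target C, 10,000 per well, treated 24 h at 37 °C with 10-point threefold dilutions (top 10 μM final, ≤0.25% DMSO). Lytic HiBiT luminescence read; response normalised to unmodified K562 and DMSO controls, four-parameter fit interpolated at 50% for IC50.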

[3] = test system: Target C; experiment: RT-qPCR splicing assay panel, Target C canonical junction (CJ) mRNA; format: cell-based, human; details: Homo sapiens; Table 5 panel; canonical junction qPCR; compound concentration having 50% response in CJ decrease; read-out: Target C IC50 (decrease in CJ mRNA levels)
Summary of the method: as §1

[4] = test system: K562 (human chronic myelogenous leukemia) cells; experiment: Cell Titer Glo 2.0 cell viability assay; format: cell-based; details: Homo sapiens, K562, 72 h, K562 cells, 72 hours, Cell Titer Glo 2.0; read-out: K562 GI50

| SMILES | IC50 [1] [µM] | IC50 [2] [µM] | IC50 [3] [µM] | GI50 [4] [µM] |
| --- | --- | --- | --- | --- |
| Cc1cn2nc(-c3ccc4c(=O)n([C@@H]5CCNC[C@H]5F)ncc4c3)cc(C)c2n1 [Compound 379] | 0.1 to 1 | 0.1 to 1 | 1 to 10 | 1 to 10 |
| Cc1nc2c(F)cc(-c3cc(F)c4c(=O)n(C5CCNC6(CC6)C5)ccc4c3)cc2n1C (stereo not drawn) [Compound 430, 8-fluoro-6-(4-fluoro-1,2-dimethyl-1H-benzo[d]imidazol-6-yl)-2-(4-azaspiro[2.5]octan-7-yl)isoquinolin-1(2H)-one] | 0.1 to 1 | > 10 | > 10 | 1 to 10 |
| Cn1cc2cc(-n3cnc4cc(C5CCNCC5)ccc4c3=O)ccc2n1 [Compound 172] | > 10 | > 10 | > 10 | 1 to 10 |
| Cc1cn2cc(-c3cc(N)c4c(=O)n(C5CCNCC5)cnc4c3)cc(C#N)c2n1 [Compound 364, 6-[5-amino-4-oxo-3-(piperidin-4-yl)quinazolin-7-yl]-2-methylimidazo[1,2-a]pyridine-8-carbonitrile] | > 10 | > 10 | > 10 | > 10 |
| Cc1cn2cc(-c3cc(F)c4c(=O)n(C5CCOC5)cnc4c3)cc(C#N)c2n1 (stereo in doubt) [Compound 500, (S)-6-(5-fluoro-4-oxo-3-(tetrahydrofuran-3-yl)-3,4-dihydroquinazolin-7-yl)-2-methylimidazo[1,2-a]pyridine-8-carbonitrile] | 0.1 to 1 | 0.1 to 1 | 0.1 to 1 | 0.1 to 1 |
| COc1cc2c(=O)n(C3CCNCC3)ccc2cc1-c1cc(C)c2nc(C)cn2n1 [Compound 449, 6-{2,8-dimethylimidazo[1,2-b]pyridazin-6-yl}-7-methoxy-2-(piperidin-4-yl)isoquinolin-1-one] | > 10 | > 10 | > 10 | > 10 |
| Cc1cc(-c2ccc3c(=O)n([C@@H]4CCNC[C@H]4F)ncc3c2)cc2cn(C)nc12 [Compound 378] | 0.1 to 1 | 1 to 10 | 1 to 10 | 1 to 10 |
| Cc1cn2cc(-c3cc(F)c4c(=O)n(C5CCOCC5)cnc4c3)cc(C#N)c2n1 [Compound 367, 6-[5-fluoro-3-(oxan-4-yl)-4-oxoquinazolin-7-yl]-2-methylimidazo[1,2-a]pyridine-8-carbonitrile] | 0.1 to 1 | 0.1 to 1 | 0.1 to 1 | 0.1 to 1 |
| Cc1c(O)c(-c2cc(F)c3c(=O)n(C4CCNC5(CC5)C4)ccc3c2)cc2cn(C)nc12 (stereo not drawn) [Compound 419, 2-{4-azaspiro[2.5]octan-7-yl}-8-fluoro-6-(6-hydroxy-2,7-dimethylindazol-5-yl)isoquinolin-1-one] | 0.1 to 1 | > 10 | > 10 | > 10 |
| Cc1cc(-c2ccc3c(=O)n(C4CCNC5(COC5)C4)cnc3c2)cc2cn(C)nc12 (stereo not drawn) [Compound 375] | 1 to 10 | 1 to 10 | 1 to 10 | 1 to 10 |
| Cc1cn2nc(-c3ccc4c(=O)n(C5CCNCC5)cc(C)c4c3)cc(C)c2n1 [Compound 381, 6-{2,8-dimethylimidazo[1,2-b]pyridazin-6-yl}-4-methyl-2-(piperidin-4-yl)isoquinolin-1-one] | < 0.1 | 0.1 to 1 | 1 to 10 | 0.1 to 1 |
| Cc1cn2nc(-c3cc(F)c4c(=O)n(C5CCNC6(CC6)C5)ccc4c3)cc(C)c2n1 (stereo not drawn) [Compound 380, 6-(2,8-dimethylimidazo[1,2-b]pyridazin-6-yl)-8-fluoro-2-(4-azaspiro[2.5]octan-7-yl)isoquinolin-1(2H)-one] | < 0.1 | < 0.1 | < 0.1 | 0.1 to 1 |
| Cc1cn2nc(-c3ccc4c(=O)n(C5CCNC6(CC6)C5)ccc4c3)cc(C)c2n1 (stereo not drawn) [Compound 384] | < 0.1 | < 0.1 | 0.1 to 1 | 0.1 to 1 |
| Cn1cc2c(n1)CCN(c1ccc3c(=O)n(C4CCNCC4)ccc3c1)C2 [Compound 509, 6-{2-methyl-4H,6H,7H-pyrazolo[4,3-c]pyridin-5-yl}-2-(piperidin-4-yl)isoquinolin-1-one] | 1 to 10 | > 10 | > 10 | > 10 |
| Cc1cn2cc(-c3ccc4c(=O)n(C5CCNC6(CC6)C5)ncc4c3)cc(Cl)c2n1 (stereo not drawn) [Compound 510] | < 0.1 | 1 to 10 | 1 to 10 | 1 to 10 |
| Cc1cn2cc(-c3cc(F)c4c(=O)n(C5CCNC6(CC6)C5)ccc4c3)c(O)c(C)c2n1 (stereo not drawn) [Compound 421, 2-{4-azaspiro[2.5]octan-7-yl}-8-fluoro-6-{7-hydroxy-2,8-dimethylimidazo[1,2-a]pyridin-6-yl}isoquinolin-1-one] | > 10 | > 10 | > 10 | > 10 |
| Cc1cn2nc(-c3ccc4c(=O)n(C5CCCNC5)ccc4c3)cc(C)c2n1 (stereo in doubt) [Compound 410, 6-{2,8-dimethylimidazo[1,2-b]pyridazin-6-yl}-2-[(3S)-piperidin-3-yl]isoquinolin-1-one] | < 0.1 | 1 to 10 | > 10 | 1 to 10 |
| Cn1cc2cc(-n3cnc4cc(C5=CC6CCC(C5)N6)ccc4c3=O)ccc2n1 (stereo not drawn) [Compound 160] | > 10 | > 10 | > 10 | > 10 |
| Cc1cn2nc(-c3cc(C)c4c(=O)n(C5CCNC6(CC6)C5)ncc4c3)cc(C)c2n1 (stereo not drawn) [Compound 423, 6-(2,8-dimethylimidazo[1,2-b]pyridazin-6-yl)-8-methyl-2-(4-azaspiro[2.5]octan-7-yl)phthalazin-1(2H)-one] | < 0.1 | < 0.1 | 0.1 to 1 | 0.1 to 1 |
| Cc1cn2cc(-c3cc(F)c4c(=O)n(C5CCNCC5)ccc4c3)cc(C#N)c2n1 [Compound 383, 6-[8-fluoro-1-oxo-2-(piperidin-4-yl)isoquinolin-6-yl]-2-methylimidazo[1,2-a]pyridine-8-carbonitrile] | < 0.1 | 0.1 to 1 | 1 to 10 | 0.1 to 1 |

Continued, values first:

| IC50 [1] [µM] | IC50 [2] [µM] | IC50 [3] [µM] | GI50 [4] [µM] | SMILES |
| --- | --- | --- | --- | --- |
| < 0.1 | 1 to 10 | 1 to 10 | 1 to 10 | Cc1cn2nc(-c3cc(O)c4c(=O)n(C5CCNC5)ccc4c3)cc(C)c2n1 (stereo not drawn) [Compound 432, 6-{2,8-dimethylimidazo[1,2-b]pyridazin-6-yl}-8-hydroxy-2-(pyrrolidin-3-yl)isoquinolin-1-one] |
| < 0.1 | < 0.1 | < 0.1 | < 0.1 | Cn1cc2cc(-c3cc(F)c4c(=O)n(C5CCNC6(CC6)C5)ccc4c3)cc(F)c2n1 (stereo not drawn) [Compound 412] |
| < 0.1 | 1 to 10 | < 0.1 | 1 to 10 | Cc1cn2nc(-c3ccc4c(=O)n([C@H]5CCNC6(CC6)C5)ncc4c3)cc(C)c2n1 [Compound 369, 2-[(7S)-4-azaspiro[2.5]octan-7-yl]-6-{2,8-dimethylimidazo[1,2-b]pyridazin-6-yl}phthalazin-1-one] |
| < 0.1 | < 0.1 | 0.1 to 1 | < 0.1 | Cc1cn2cc(-c3cc(F)c4c(=O)n(C5CCNC6(CC6)C5)ccc4c3)cc(Cl)c2n1 (stereo not drawn) [Compound 413, 2-{4-azaspiro[2.5]octan-7-yl}-6-{8-chloro-2-methylimidazo[1,2-a]pyridin-6-yl}-8-fluoroisoquinolin-1-one] |
| < 0.1 | 1 to 10 | 1 to 10 | 1 to 10 | Cc1cn2nc(-c3cc(F)c4c(=O)n(C5CCNC5)ccc4c3)cc(C)c2n1 (stereo in doubt) [Compound 392, (S)-6-(2,8-dimethylimidazo[1,2-b]pyridazin-6-yl)-8-fluoro-2-(pyrrolidin-3-yl)isoquinolin-1(2H)-one] |
| < 0.1 | < 0.1 | 0.1 to 1 | < 0.1 | Cc1cn2cc(-c3cc(F)c4c(=O)n(C5CCNCC5)ccc4c3)cc(F)c2n1 [Compound 370] |
| < 0.1 | < 0.1 | 0.1 to 1 | < 0.1 | Cc1cn2nc(-c3cc(C#N)c4c(=O)n(C5CCNC6(CC6)C5)ccc4c3)cc(C)c2n1 (stereo not drawn) [Compound 387] |
| < 0.1 | > 10 | 0.1 to 1 | 1 to 10 | Cc1cn2cc(-c3cc(O)c4c(=O)n(C5CCNC5)ccc4c3)cc(C#N)c2n1 (stereo not drawn) [Compound 433, 6-(8-hydroxy-1-oxo-2-(pyrrolidin-3-yl)-1,2-dihydroisoquinolin-6-yl)-2-methylimidazo[1,2-a]pyridine-8-carbonitrile] |
| < 0.1 | < 0.1 | 0.1 to 1 | 0.1 to 1 | Cc1cn2nc(-c3ccc4c(=O)n([C@@H]5CCNC6(CC6)C5)ncc4c3)cc(C)c2n1 (stereo in doubt) [Compound 368, 2-[(7R)-4-azaspiro[2.5]octan-7-yl]-6-{2,8-dimethylimidazo[1,2-b]pyridazin-6-yl}phthalazin-1-one] |
| < 0.1 | 1 to 10 | 1 to 10 | 1 to 10 | Cc1cn2cc(-c3cc(F)c4c(=O)n(C5CCNC6(CC6)C5)ccc4c3)ncc2n1 (stereo not drawn) [Compound 428, 8-fluoro-6-(2-methylimidazo[1,2-a]pyrazin-6-yl)-2-(4-azaspiro[2.5]octan-7-yl)isoquinolin-1(2H)-one] |
